Experiments:
HT-22 cells = experiment: Cytotoxicity in HT-22 cells (PrestoBlue); details: whole range of concentrations 0.1–100 μM
Protocol: The compounds were tested at 5 concentrations (0.1, 1, 10, 50, and 100 μM).
Mouse Hippocampal Neuronal Cell Line (HT-22) was a generous gift from Dr Bartosz Pomierny of the Department of Biochemical Toxicology, Jagiellonian University Medical College, Krakow, Poland. Cells were cultured in Dulbecco’s modified Eagle’s Medium—high glucose (DMEM, Glutamax Thermo Fisher) supplemented with 10% heat-inactivated fetal bovine serum (Thermo Fisher), 100 IU/mL penicillin (Merck) and 100 μg/mL streptomycin (Merck). Cells were cultured in flasks (area 175 cm^2, Nunc), and incubated at 37 °C, 5% CO2. For the measurement of cell viability and neuroprotective effect against okadaic acid cells were placed in a 96-well culture plate (2 × 10^4 cells per well, Falcon). Before the tests, cells were grown for 24 h in the incubator (37 °C, 5% CO2).
Cell viability was evaluated using the PrestoBlue reagent (ThermoFisher), according to the manufacturer’s procedures.[87] Following 24 h of incubation with the tested molecule, PrestoBlue reagent was added to a microplate well in an amount equal to one-tenth of the remaining medium volume. The resulting mixture was incubated for 15 min at 37 °C, and the fluorescence intensity (EX 530 nm; EM 580 nm) was measured in the plate reader POLARstar Omega, (BMG Labtech).

CDK1/cyclinB = biological target: T1, CDK1/cyclinB (Homo sapiens, UniProt P06493); experiment: Kinase selectivity, radiometric [Km ATP] KinaseProfiler; format: biochemical
T1 construct: purchased Eurofins (KinaseProfiler service)
T1 sequence (P06493 whole entry): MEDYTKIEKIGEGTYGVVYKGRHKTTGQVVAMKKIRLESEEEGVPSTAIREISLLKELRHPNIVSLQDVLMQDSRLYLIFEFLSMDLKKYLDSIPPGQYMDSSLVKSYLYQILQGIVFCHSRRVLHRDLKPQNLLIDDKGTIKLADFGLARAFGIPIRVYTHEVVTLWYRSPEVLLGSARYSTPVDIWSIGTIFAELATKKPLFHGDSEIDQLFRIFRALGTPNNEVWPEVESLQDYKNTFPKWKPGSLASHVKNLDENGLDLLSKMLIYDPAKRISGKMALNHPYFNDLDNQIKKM
T1 sequence (P14635 whole entry partner): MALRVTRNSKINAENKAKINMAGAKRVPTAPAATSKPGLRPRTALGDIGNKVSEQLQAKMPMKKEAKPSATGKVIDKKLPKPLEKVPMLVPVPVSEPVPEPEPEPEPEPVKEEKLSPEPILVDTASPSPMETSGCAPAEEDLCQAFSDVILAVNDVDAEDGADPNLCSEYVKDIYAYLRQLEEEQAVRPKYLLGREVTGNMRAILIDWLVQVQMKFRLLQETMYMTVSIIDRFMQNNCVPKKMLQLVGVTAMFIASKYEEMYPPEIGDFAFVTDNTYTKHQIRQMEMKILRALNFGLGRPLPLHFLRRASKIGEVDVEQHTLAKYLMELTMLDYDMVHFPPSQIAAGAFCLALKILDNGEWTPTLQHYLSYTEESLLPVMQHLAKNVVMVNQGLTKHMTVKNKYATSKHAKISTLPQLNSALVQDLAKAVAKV
Protocol: (§1) We selected those kinases with the greatest potential for interaction based on structural homology, as indicated by the ChemPartner panel.
(§2) Figure 7 Kinase selectivity for compound 36. Data are presented as percent of kinases’ activity in the presence of 1 μM of compound 36. Kinases’ panel (CMGC group, human enzymes): CDK1/cyclinB, CDK2/cyclinA, CDK4/cyclinD3, CDK6/cyclinD3, CDK7/cyclinH/MAT1, CDK9/cyclinT1, DYRK1A, DYRK1B, GSK-3α, GSK-3β, JNK2α2, JNK3, MAPK1, MAPK2, SAPK2a(T106M), SAPK2b, SAPK3.
(§3) Selectivity studies were performed at Eurofins in Kinase Enzymatic Radiometric [Km ATP]
(§4) Kinase Profiler Lead Hunter Assay. The percentage of enzymatic activity was measured at the
(§5) concentration of 1 µM of compound 36 in duplicate for 17 selected kinases.
(§6) Table S12. Inhibitory activity of compound 36 against selected kinases.
(§7) *Where n = 2, the value reported here is actually range / √ 2.

CDK6/cyclinD3 = biological target: T2, CDK6/cyclinD3 (Homo sapiens, UniProt Q00534); experiment: as above; format: biochemical
T2 construct: purchased Eurofins (KinaseProfiler service)
T2 sequence (Q00534 whole entry): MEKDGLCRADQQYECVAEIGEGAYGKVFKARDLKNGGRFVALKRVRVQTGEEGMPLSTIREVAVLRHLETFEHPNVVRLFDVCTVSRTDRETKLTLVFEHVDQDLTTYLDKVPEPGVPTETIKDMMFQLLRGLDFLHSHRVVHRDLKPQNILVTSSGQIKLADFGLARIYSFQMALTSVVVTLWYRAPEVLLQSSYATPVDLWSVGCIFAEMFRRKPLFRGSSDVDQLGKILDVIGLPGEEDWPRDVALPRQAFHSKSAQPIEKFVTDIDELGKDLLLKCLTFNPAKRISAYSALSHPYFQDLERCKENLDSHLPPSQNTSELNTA
T2 sequence (P30281 whole entry partner): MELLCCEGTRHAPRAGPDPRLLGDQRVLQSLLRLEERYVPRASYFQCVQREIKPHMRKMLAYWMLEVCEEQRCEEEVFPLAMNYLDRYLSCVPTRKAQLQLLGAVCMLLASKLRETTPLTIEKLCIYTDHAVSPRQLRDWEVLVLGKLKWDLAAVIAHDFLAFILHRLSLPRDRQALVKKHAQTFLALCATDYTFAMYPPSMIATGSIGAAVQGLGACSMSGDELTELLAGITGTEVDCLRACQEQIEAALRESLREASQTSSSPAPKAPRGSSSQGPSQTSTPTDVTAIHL
Protocol: as §1, §2, §3, §4, §5, §6, §7

CDK7/cyclinH/MAT1 = biological target: T3, CDK7/cyclinH/MAT1 (Homo sapiens, UniProt P50613); experiment: as above; format: biochemical
T3 construct: purchased Eurofins (KinaseProfiler service)
T3 sequence (P50613 whole entry): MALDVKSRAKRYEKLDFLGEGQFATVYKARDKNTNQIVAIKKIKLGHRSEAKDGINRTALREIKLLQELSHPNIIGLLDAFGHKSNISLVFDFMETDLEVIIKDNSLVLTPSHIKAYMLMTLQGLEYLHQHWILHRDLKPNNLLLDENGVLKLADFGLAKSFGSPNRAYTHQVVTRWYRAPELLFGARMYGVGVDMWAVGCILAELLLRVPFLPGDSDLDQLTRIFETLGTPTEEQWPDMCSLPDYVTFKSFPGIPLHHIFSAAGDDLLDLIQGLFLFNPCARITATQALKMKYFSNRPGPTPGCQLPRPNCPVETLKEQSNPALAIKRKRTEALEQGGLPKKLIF
T3 sequence (P51946 whole entry partner): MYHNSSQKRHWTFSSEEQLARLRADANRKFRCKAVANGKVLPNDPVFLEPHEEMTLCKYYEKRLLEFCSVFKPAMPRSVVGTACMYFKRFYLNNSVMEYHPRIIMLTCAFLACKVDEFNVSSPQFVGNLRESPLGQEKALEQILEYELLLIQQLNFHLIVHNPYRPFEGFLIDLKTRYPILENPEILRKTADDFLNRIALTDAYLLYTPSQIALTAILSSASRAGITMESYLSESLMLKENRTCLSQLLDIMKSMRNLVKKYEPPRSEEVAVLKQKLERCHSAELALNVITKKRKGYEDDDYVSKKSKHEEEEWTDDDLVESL
T3 sequence (P51948 whole entry partner): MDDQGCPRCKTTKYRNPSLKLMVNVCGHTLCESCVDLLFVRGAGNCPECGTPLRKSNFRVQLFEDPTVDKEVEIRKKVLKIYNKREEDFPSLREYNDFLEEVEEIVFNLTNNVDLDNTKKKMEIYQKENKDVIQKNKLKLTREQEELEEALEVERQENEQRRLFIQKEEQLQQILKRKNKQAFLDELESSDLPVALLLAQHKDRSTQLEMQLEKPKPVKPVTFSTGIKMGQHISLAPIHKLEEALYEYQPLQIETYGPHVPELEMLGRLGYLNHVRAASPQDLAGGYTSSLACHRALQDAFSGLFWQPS
Protocol: as §1, §2, §3, §4, §5, §6, §7

DYRK1A = biological target: T4, DYRK1A (Homo sapiens, UniProt Q13627); experiment: as above; format: biochemical; details: duplicate
T4 construct: purchased Eurofins (KinaseProfiler service)
Protocol: as §1, §2, §3, §4, §5, §6, §7

DYRK1B = biological target: T5, DYRK1B (Homo sapiens, UniProt Q9Y463); experiment: as above; format: biochemical; details: duplicate
T5 construct: purchased Eurofins (KinaseProfiler service)
Protocol: as §1, §2, §3, §4, §5, §6, §7

GSK-3α = biological target: T6, GSK-3α (Homo sapiens, UniProt P49840); experiment: as above; format: biochemical; details: duplicate
T6 construct: purchased Eurofins (KinaseProfiler service)
Protocol: as §1, §2, §3, §4, §5, §6, §7

JNK3 = biological target: T7, JNK3 (Homo sapiens, UniProt P53779); experiment: as above; format: biochemical
T7 construct: purchased Eurofins (KinaseProfiler service)
T7 sequence (P53779 whole entry): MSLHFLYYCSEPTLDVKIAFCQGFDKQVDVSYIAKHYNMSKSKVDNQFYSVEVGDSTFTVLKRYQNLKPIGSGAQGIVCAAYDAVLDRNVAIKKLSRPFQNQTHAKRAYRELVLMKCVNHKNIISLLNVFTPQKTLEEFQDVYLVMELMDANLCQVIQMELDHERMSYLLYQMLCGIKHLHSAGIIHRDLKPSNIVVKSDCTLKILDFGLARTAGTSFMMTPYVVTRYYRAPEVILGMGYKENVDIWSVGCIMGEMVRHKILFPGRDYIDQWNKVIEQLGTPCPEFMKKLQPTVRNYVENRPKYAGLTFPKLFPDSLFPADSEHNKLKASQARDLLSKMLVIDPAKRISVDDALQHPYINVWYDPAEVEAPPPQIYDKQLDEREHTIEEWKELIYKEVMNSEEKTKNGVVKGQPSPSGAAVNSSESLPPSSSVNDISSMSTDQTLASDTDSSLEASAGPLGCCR
Protocol: as §1, §2, §3, §4, §5, §6, §7

MAPK1 = biological target: T8, MAPK1 (Homo sapiens, UniProt P27361); experiment: as above; format: biochemical
T8 construct: purchased Eurofins (KinaseProfiler service)
T8 sequence (P27361 whole entry): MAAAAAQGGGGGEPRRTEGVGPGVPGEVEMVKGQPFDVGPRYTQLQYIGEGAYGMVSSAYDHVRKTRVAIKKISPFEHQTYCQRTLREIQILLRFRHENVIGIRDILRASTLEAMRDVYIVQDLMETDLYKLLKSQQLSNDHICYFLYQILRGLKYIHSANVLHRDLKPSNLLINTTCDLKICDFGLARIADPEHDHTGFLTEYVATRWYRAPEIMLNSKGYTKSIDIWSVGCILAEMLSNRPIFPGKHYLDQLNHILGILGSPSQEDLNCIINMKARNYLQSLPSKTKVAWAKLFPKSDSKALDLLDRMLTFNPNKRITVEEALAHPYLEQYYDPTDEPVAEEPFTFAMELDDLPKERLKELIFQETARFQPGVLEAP
Protocol: as §1, §2, §3, §4, §5, §6, §7

SAPK2a(T106M) = biological target: T9, SAPK2a(T106M) (Homo sapiens, UniProt Q16539, T106M); experiment: as above; format: biochemical
T9 construct: purchased Eurofins (KinaseProfiler service)
T9 sequence (Q16539 whole entry T106M): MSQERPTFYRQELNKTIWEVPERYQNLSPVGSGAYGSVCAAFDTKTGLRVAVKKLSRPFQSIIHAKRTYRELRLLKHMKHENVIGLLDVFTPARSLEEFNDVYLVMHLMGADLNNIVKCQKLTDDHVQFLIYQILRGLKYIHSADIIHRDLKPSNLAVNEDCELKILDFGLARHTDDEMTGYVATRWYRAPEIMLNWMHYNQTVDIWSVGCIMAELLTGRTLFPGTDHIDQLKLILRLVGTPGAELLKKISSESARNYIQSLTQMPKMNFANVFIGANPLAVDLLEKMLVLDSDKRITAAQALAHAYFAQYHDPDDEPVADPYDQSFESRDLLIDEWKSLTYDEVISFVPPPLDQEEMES
Protocol: as §1, §2, §3, §4, §5, §6, §7

SAPK2b = biological target: T10, SAPK2b (Homo sapiens, UniProt Q15759); experiment: as above; format: biochemical
T10 construct: purchased Eurofins (KinaseProfiler service)
T10 sequence (Q15759 whole entry): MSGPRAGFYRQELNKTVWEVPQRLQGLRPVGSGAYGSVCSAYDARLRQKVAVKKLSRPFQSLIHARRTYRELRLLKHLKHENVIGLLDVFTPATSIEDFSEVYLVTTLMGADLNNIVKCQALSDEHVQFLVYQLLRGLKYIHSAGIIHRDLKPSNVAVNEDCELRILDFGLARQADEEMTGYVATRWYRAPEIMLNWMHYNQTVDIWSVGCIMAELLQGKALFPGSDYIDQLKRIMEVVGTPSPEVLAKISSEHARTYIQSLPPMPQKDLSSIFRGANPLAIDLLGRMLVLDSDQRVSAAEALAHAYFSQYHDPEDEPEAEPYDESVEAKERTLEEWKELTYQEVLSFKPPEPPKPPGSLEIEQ
Protocol: as §1, §2, §3, §4, §5, §6, §7

SAPK3 = biological target: T11, SAPK3 (Homo sapiens, UniProt P53778); experiment: as above; format: biochemical
T11 construct: purchased Eurofins (KinaseProfiler service)
T11 sequence (P53778 whole entry): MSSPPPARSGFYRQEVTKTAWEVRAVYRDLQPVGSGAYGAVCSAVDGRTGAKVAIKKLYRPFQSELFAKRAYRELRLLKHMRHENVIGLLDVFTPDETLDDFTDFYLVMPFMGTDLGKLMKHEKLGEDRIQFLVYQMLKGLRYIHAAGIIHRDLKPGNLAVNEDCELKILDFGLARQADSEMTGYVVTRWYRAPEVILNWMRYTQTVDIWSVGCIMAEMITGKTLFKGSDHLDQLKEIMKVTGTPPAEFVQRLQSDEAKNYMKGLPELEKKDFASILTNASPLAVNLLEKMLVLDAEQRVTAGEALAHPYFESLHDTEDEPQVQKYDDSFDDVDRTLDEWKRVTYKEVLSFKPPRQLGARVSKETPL
Protocol: as §1, §2, §3, §4, §5, §6, §7

GSK-3β [1] = biological target: T12, GSK-3β (Homo sapiens, UniProt P49841); experiment: biochemical
T12 sequence (P49841 whole entry): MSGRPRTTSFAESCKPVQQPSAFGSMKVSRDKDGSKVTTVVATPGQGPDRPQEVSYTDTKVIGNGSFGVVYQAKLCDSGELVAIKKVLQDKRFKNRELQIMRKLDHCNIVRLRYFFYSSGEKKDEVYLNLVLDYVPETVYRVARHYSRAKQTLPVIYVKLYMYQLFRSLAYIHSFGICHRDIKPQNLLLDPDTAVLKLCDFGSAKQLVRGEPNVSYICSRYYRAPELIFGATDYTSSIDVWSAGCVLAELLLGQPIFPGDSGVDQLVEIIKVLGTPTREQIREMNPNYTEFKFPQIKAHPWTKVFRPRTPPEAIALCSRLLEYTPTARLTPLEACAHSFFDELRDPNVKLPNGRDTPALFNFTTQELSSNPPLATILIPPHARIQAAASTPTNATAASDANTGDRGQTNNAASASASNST
Protocol: as §1, §2, §3, §4, §5, §6, §7

GSK-3β [2] = biological target: T12, GSK-3β; experiment: Kinetics of GSK-3β inhibition (ADP-Glo, varied ATP); format: biochemical; parameters: purchased Promega
Excerpt: Each data point was collected in triplicate.
Kinetics of GSK-3β inhibition by compound 36
diverse ATP concentrations to determine the mechanism of enzyme - inhibitor interaction. The
(1 picture or pasted object on this page, not shown here) […]

O=C(Nc1cc(-c2ccc(-c3ncon3)s2)ccn1)C1CC1 [Compound 36, N-(4-(5-(1,2,4-Oxadiazol-3-yl)thiophen-2-yl)pyridin-2-yl)cyclopropanecarboxamide]
cell viability in HT-22 cells (HT-22 cells): No significant decrease in cell viability | inhibition at 1 µM (CDK1/cyclinB): 58% | % of enzyme activity at 1μM of 36 ±SD, CDK1/cyclinB (CDK1/cyclinB; duplicate): 42±4% | inhibition at 1 µM (CDK6/cyclinD3): < 50% | % of enzyme activity at 1μM of 36 ±SD, CDK6/cyclinD3 (CDK6/cyclinD3; duplicate): 90±1% | inhibition at 1 µM (CDK7/cyclinH/MAT1): < 50% | % of enzyme activity at 1μM of 36 ±SD, CDK7/cyclinH/ MAT1 (CDK7/cyclinH/MAT1; duplicate): 93±7% | % of enzyme activity at 1μM of 36 ±SD, DYRK1A (DYRK1A): 11±1% | % of enzyme activity at 1μM of 36 ±SD, DYRK1B (DYRK1B): 26±6% | % of enzyme activity at 1μM of 36 ±SD, GSK-3α (GSK-3α): 2±1% | inhibition at 1 µM (JNK3): < 50% | % of enzyme activity at 1μM of 36 ±SD, JNK3 (JNK3; duplicate): 73±6% | inhibition at 1 µM (MAPK1): < 50% | % of enzyme activity at 1μM of 36 ±SD, MAPK1 (MAPK1; duplicate): 100±1% | inhibition at 1 µM (SAPK2a(T106M)): < 50% | % of enzyme activity at 1μM of 36 ±SD, SAPK2a(T106M) (SAPK2a(T106M); duplicate): 95±7% | inhibition at 1 µM (SAPK2b): < 50% | % of enzyme activity at 1μM of 36 ±SD, SAPK2b (SAPK2b; duplicate): 100±2% | % of enzyme activity at 1μM of 36 ±SD, SAPK3 (SAPK3; 1 μM, duplicate): 50±3% | inhibition at 1 µM (SAPK3; read-out: inhibition of SAPK3): < 50% | % of enzyme activity at 1μM of 36 ±SD, GSK-3β (GSK-3β [1]; 1 μM, duplicate): 5±1% | inhibition at 1 µM (GSK-3β [1]; read-out: inhibition of GSK-3β): 92% | Ki (GSK-3β [2]): 0.0603 µM | type of inhibition (GSK-3β [2]; Lineweaver–Burk and Cornish–Bowden plots, varied ATP): ATP-competitive

— publication PMC11378298 (ACS Chemical Neuroscience, 2024)
